# Experimental data published in patent publication US20230075521A1, “RESVERATROL PHARMACEUTICAL COMPOSITIONS AND METHODS OF USE THEREOF” (priority 2021, published 2023).
# “And” between values parts separate entries of the source, which are not always exact repeats. Equal entries are not always repeated.
# How the values were obtained:
# [1] = system: AD-related gene expression; assay: RT-qPCR of brain regions, long-term treatment; assay type: in vivo, 3×Tg-AD mouse; details: 3×Tg-AD mice, 50 mg/kg, 9 months
# Experimental: (§1) At study endpoints (age 15 months for sub-chronic study, age 13 months for long-term study), mice were anaesthetized with isoflurane and blood was collected by transcardial puncture. Blood was stored on ice and then centrifuged at 10,000×g at 4° C. for 10 min to collect serum and stored at −80° C. until use. The brain was then extracted and quickly dissected on ice to collect prefrontal cortex (PFC), hippocampus, entorhinal cortex (ERC), and cerebellum, which were immediately frozen in liquid nitrogen. The samples were stored at −80° C. until processed for RNA or protein extraction. For each mouse, brain regions from one hemisphere were used for RNA preparation and qPCR and sections from the other hemisphere were used for protein work including ELISAs.
# [2] = system: ERC cytokines and chemokines; assay: Entorhinal cortex (ERC) cytokine and chemokine levels (48-Plex ProcartaPlex, Luminex); assay type: in vivo, 3×Tg-AD mouse
# Experimental: as §1
# Protein lysates were extracted by sonicating tissue in M-PER Mammalian Protein Extraction Reagent (Thermo Fisher Scientific) supplemented with protease inhibitor (Thermo Fisher Scientific) and phosphatase inhibitor (Thermo Fisher Scientific). Total protein was quantified using Pierce BCA Protein Assay Kit (Thermo Fisher Scientific) and read at 562 nm using EnVision (Perkin Elmer).
# Human Aβ1-42, Aβ1-40, phosphorylated tau Ser 396, phosphorylated tau Thr181, and total tau were measured in brain tissue by enzyme linked immuno-sorbent assay (ELISA; Invitrogen by Thermo) and normalized to total protein. All the kits were used as per the manufacturer's instructions and measured using the EnVision® multimode plate reader (Perkin Elmer). Serum and brain tissue protein extracts were analyzed for cytokine and chemokine levels using the Immune Monitoring 48-Plex Mouse ProcartaPlex™ Panel (Invitrogen by Thermo) according to manufacturer's standard protocol and read using Luminex xMAP (multi-analyte profiling) technology.
# [3] = female 3×Tg-AD mice, 50 mg/kg oral, 9 months
# [4] = female 3×Tg-AD mice, 50 mg/kg oral, 9 months, 50 mg/kg
# [5] = male 3×Tg-AD mice, 50 mg/kg oral, 9 months
# [6] = male 3×Tg-AD mice, 50 mg/kg oral, 9 months, 50 mg/kg
smiles,measurement,setting,value
"Oc1ccc(/C=C/c2cc(O)cc(O)c2)cc1 [RSV, (trans-)resveratrol]","Adam10 expression in PFC, increase vs vehicle",[1],20.44%
same,"IFNg ERC level, change vs vehicle",[2]; [3],-0.64 pg/mL
same,"IL-1b ERC level, change vs vehicle",[2]; [3],-1.12 pg/mL
same,"IL-2 ERC level, change vs vehicle",[2]; [3],18.07 pg/mL
same,"IL-2RA ERC level, change vs vehicle",[2]; [3],-0.95 pg/mL
same,"IL-3 ERC level, change vs vehicle",[2]; [3],-0.34 pg/mL
same,"IL-5 ERC level, change vs vehicle",[2]; [3],-6.60 pg/mL
same,"IL-9 ERC level, change vs vehicle",[2]; [3],7.25 pg/mL
same,"IL- 10 ERC level, change vs vehicle",[2]; [3],0.54 pg/mL
same,"IL-12p70 ERC level, change vs vehicle",[2]; [3],1.75 pg/mL
same,"IL-13 ERC level, change vs vehicle",[2]; [3],1.74 pg/mL
same,"IL-17A ERC level, change vs vehicle",[2]; [3],0.69 pg/mL
same,"IL-22 ERC level, change vs vehicle",[2]; [3],-0.13 pg/mL
same,"IL-25/IL-17 ERC level, change vs vehicle",[2]; [3],-23.30 pg/mL
same,"IL-27 ERC level, change vs vehicle",[2]; [3],-0.87 pg/mL
same,"IL-33 ERC level, change vs vehicle",[2]; [3],-56.09 pg/mL
same,"LIX ERC level, change vs vehicle",[2]; [3],-12.67 pg/mL
same,"M-CSF ERC level, change vs vehicle",[2]; [3],-0.32 pg/mL
same,"MCP-3 ERC level, change vs vehicle",[2]; [3],1.94 pg/mL
same,"MIP-2 ERC level, change vs vehicle",[2]; [3],-2.59 pg/mL
same,"RANTES ERC level, change vs vehicle",[2]; [3],-1.97 pg/mL
same,"TNFa ERC level, change vs vehicle",[2]; [3],-10.12 pg/mL
same,"VEGF-A ERC level, change vs vehicle",[2]; [3],4.80 pg/mL
same,"sRANKL ERC level, change vs vehicle",[2]; [3],0.70 pg/mL
same,"IL-6 ERC level, change vs vehicle",[2]; [4],5.44 ± 2.1 pg/mL and 5.44 pg/mL
same,"IL-7 ERC level, change vs vehicle",[2]; [4],40.12 ± 15.04 pg/mL and 40.12 pg/mL
same,"IL-18 ERC level, change vs vehicle",[2]; [4],-84.91 ± 35.55 pg/mL and -84.91 pg/mL
same,"IL-19 ERC level, change vs vehicle",[2]; [4],105.7 ± 22.58 pg/mL and 105.70 pg/mL
same,"IL-23 ERC level, change vs vehicle",[2]; [4],42.53 ± 10.42 pg/mL and 42.53 pg/mL
same,"IL-28 ERC level, change vs vehicle",[2]; [4],146.9 ± 34.42 pg/mL and 146.90 pg/mL
same,"IP-10 ERC level, change vs vehicle",[2]; [4],21.13 ± 4.32 pg/mL and 21.13 pg/mL
same,"IFNg ERC level, change vs vehicle",[2]; [5],1.51 pg/mL
same,"IL-1b ERC level, change vs vehicle",[2]; [5],0.97 pg/mL
same,"IL-2 ERC level, change vs vehicle",[2]; [5],31.55 pg/mL
same,"IL-3 ERC level, change vs vehicle",[2]; [5],0.18 pg/mL
same,"IL-5 ERC level, change vs vehicle",[2]; [5],3.37 pg/mL
same,"IL-6 ERC level, change vs vehicle",[2]; [5],2.70 pg/mL
same,"IL-7 ERC level, change vs vehicle",[2]; [5],41.08 pg/mL
same,"IL-9 ERC level, change vs vehicle",[2]; [5],19.29 pg/mL
same,"IL-12p70 ERC level, change vs vehicle",[2]; [5],0.61 pg/mL
same,"IL-13 ERC level, change vs vehicle",[2]; [5],5.16 pg/mL
same,"IL-17A ERC level, change vs vehicle",[2]; [5],2.77 pg/mL
same,"IL-18 ERC level, change vs vehicle",[2]; [5],42.33 pg/mL
same,"IL-19 ERC level, change vs vehicle",[2]; [5],104.30 pg/mL
same,"IL-22 ERC level, change vs vehicle",[2]; [5],2.18 pg/mL
same,"IL-23 ERC level, change vs vehicle",[2]; [5],41.51 pg/mL
same,"IL-25/IL-17 ERC level, change vs vehicle",[2]; [5],15.36 pg/mL
same,"IL-27 ERC level, change vs vehicle",[2]; [5],2.75 pg/mL
same,"IL-28 ERC level, change vs vehicle",[2]; [5],130.90 pg/mL
same,"IL-33 ERC level, change vs vehicle",[2]; [5],64.64 pg/mL
same,"IP-10 ERC level, change vs vehicle",[2]; [5],13.80 pg/mL
same,"LIX ERC level, change vs vehicle",[2]; [5],16.39 pg/mL
same,"M-CSF ERC level, change vs vehicle",[2]; [5],0.50 pg/mL
same,"MCP-3 ERC level, change vs vehicle",[2]; [5],0.76 pg/mL
same,"RANTES ERC level, change vs vehicle",[2]; [5],1.40 pg/mL
same,"TNFa ERC level, change vs vehicle",[2]; [5],23.73 pg/mL
same,"VEGF-A ERC level, change vs vehicle",[2]; [5],3.55 pg/mL
same,"sRANKL ERC level, change vs vehicle",[2]; [5],2.59 pg/mL
same,"IL-2RA ERC level, change vs vehicle",[2]; [6],0.77 ± 0.043 pg/mL and 0.77 pg/mL
same,"MIP-2 ERC level, change vs vehicle",[2]; [6],7.51 ± 2.55 pg/mL and 7.51 pg/mL
same,"IL-9 in ERC, increase vs vehicle",[2]; males and females combined,65.4 ± 25.69 pg/mL
